Experimental data published in patent publication US20200399329A1, “ANTIMICROBIAL PEPTIDES” (priority 2015, published 2020).
Values after ≈ are worked out from the molar mass of the structure shown. Where a SMILES comes first, the peptide text is derived from it. Bridges are numbered along the chain shown (N, C = ends). Where no end group is shown, it is not given here.

Experiments:
E. coli CR BAA-2452 = type: cell-based, Escherichia coli
Method: (§1) In order to determine the MIC values of the peptides, growth and inhibition of various bacteria were monitored after treatment with the peptides of the invention (Table B). E. coli, K. pneumoniae, P. aeruginosa and Salmonella bacteria were cultured at 37° C. and at 5×10^6 CFU/ml in a standard 96-well-plate, in Mueller Hinton broth. […] The growth of the bacteria was continuously monitored via spectrophotometry at a wave-length of 625 nm. As bacterial growth progresses, Optical density at 625 nm (OD625 nm) values increase, and where the bacterial growth is inhibited, OD625 nm values remain constant. The experimental system and parameters described herein were used to determine the MIC values of OMN3, OMN5, OMN8 and OMN9 on various bacteria strains (Table B). Using the standard MHB MIC testing for antibiotic activity

E. coli ESBL BAA-198 = type: cell-based, Escherichia coli
Method: as §1

[1] = tested on: E. coli Sens. 25922 QC strain; type: cell-based, Escherichia coli
Method: as §1

K. pneu NDM1 BAA-2473 = type: cell-based, Klebsiella pneumoniae
Method: as §1

E. coli strains = type: cell-based
Method: as §1

E. coli Sens. 25922 [2] = type: cell-based, Escherichia coli; conditions: Sens. 25922
Method: (§2) In order to determine the MIC values of the peptides, growth and inhibition of various bacteria were monitored after treatment with the peptides of the invention (Table 6).
(§3) E. coli bacteria were cultured with or without OMN6 in increasing concentrations of 0.8-200 μM and with or without Fetal Bovine Serum 10% for 17-20 hours. The growth of the bacteria was continuously monitored via spectrophotometry at 600 nm. As bacterial growth progresses, OD600 nm values rise, and where the growth is inhibited OD600 nm values remain constant.
(§4) The experimental system and parameters described here were used to determine the MIC values of OMN2, OMN6, OMN7 and OMN11 on various bacteria strains (Table 7 and Table 8).

P. aeruginosa BAA-2110 [3] = type: cell-based, Pseudomonas aeruginosa
Method: as §2, §3, §4

E. coli Sens. 25922 [4] = type: cell-based, Escherichia coli
Method: (§5) In order to determine the Minimal Bactericidal Concentration (MBC) values of the peptides, colony formation of various bacteria strains was monitored and determined after treatment with the peptides of the invention. Multi-Drug Resistant A. baumannii bacteria were cultured with or without OMN6 in increasing concentrations, as is detailed in FIG. 6 and Example 6. Immediately afterwards, samples of each experimental group were diluted to 1×10^4 to 1×10^6 as necessary, and further, the samples were plated on appropriate medium-agar plates. All the plates were incubated at 37° C. for 24-48 hours. Colonies were counted and CFU/ml in the original sample, prior to plating, were calculated and determined. An example of the plates, after incubation, is presented in FIG. 7 where the plate on the left side of the image is the CTRL sample treated with DDW and in the right side of the image increasing concentrations of OMN6 are presented, as specified therein.
(§6) The experimental system and parameters described here were used to determine the MBC values of OMN2, OMN6, OMN7 and OMN11 on various bacteria strains with and without the supplementation of 10% FBS (Table 6 and Table 8).

P. aeruginosa BAA-2110 [5] = type: cell-based, Pseudomonas aeruginosa; remark: listed apart in the source
Method: as §5, §6

P. aeruginosa BAA-2795 = type: cell-based, Pseudomonas aeruginosa
Method: as §1

Proteinase-K = Proteinase-K (Parengyodontium album, UniProt P06873); assay: Proteinase-K (ProtK) proteolysis stability, Coommassie Blue stained gel; type: in vitro ADME; conditions: 10 μg protein, 2 hours at 37° C.
Method: Proteinase-K (ProtK) was used to assess the stability of OMN6 versus native Cecropin A (CecA) and Bovine Serum Albumin (BSA) (See FIG. 1 A). 10 μg of each protein were incubated with increasing concentrations of between 5-20 ng of ProtK as specified, for 2 hours at 37° C. Samples were boiled at 100° C. for five minutes and separated on 15% acrylamide gel. The gel was then stained with Coommassie Blue and excess dye was removed over-night. […] In lane 2, the CecA band was weaker than the untreated sample band in lane 1. In lane 8, fragments of degraded BSA were detected, evidence of partial degradation.
The same experimental system as described above was used to assess the stability of OMN2, OMN7 and OMN11 against proteolytic degradation by ProtK (see FIG. 1B).

Proteinase-K, sequence (P06873 106-384, species assumed): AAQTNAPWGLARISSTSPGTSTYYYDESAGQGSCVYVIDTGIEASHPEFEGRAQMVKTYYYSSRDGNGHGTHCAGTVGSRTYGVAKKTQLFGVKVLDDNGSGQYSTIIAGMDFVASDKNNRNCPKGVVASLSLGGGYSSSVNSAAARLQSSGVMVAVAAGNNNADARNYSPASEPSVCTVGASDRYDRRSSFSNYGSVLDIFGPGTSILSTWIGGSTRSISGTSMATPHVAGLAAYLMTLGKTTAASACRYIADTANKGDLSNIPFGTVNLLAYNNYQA

CC[C@H](C)[C@@H]1NC(=O)CNC(=O)[C@H](CC(=O)O)NC(=O)[C@H](CCCNC(=N)N)NC(=O)[C@H]([C@@H](C)CC)NC(=O)[C@H](CC(N)=O)NC(=O)[C@H](CCCNC(=N)N)NC(=O)CNC(=O)[C@H](CCSC)NC(=O)[C@H](CCCCN)NC(=O)[C@H](CCC(=O)O)NC(=O)[C@H]([C@@H](C)CC)NC(=O)[C@H](CCCCN)NC(=O)[C@H](CCCCN)NC(=O)[C@H](Cc2ccccc2)NC(=O)[C@H]([C@@H](C)CC)NC(=O)[C@H](CCCCN)NC(=O)[C@H](Cc2c[nH]c3ccccc23)NC(=O)[C@H](CCCNC(=N)N)NC(=O)[C@@H](NC(=O)[C@@H](N)CCSC)CSSC[C@@H](C(=O)O)NC(=O)[C@H]([C@@H](C)CC)NC(=O)[C@H](C)NC(=O)[C@H](CCCCN)NC(=O)[C@H](C)NC(=O)[C@H](CO)NC(=O)CNC(=O)[C@H](CC(C)C)NC(=O)[C@H](C(C)C)NC(=O)[C@H](CCC(=O)O)NC(=O)[C@H]([C@@H](C)CC)NC(=O)[C@H](C)NC(=O)[C@@H]2CCCN2C(=O)CNC(=O)[C@H](C)NC(=O)[C@H](C)NC(=O)[C@H](C(C)C)NC1=O [OMN8] (H-MCRWKIFKKIEKMGRNIRDGIVAAGPAIEVLGSAKAIC-OH; disulfide 2-38; N-terminus and C-terminus assumed)
MIC (E. coli CR BAA-2452): 32 µg/mL (≈ 7.67 µM) | MIC (E. coli ESBL BAA-198): 16 µg/mL (≈ 3.83 µM) | MIC [1]: 32 µg/mL (≈ 7.67 µM) | MIC (K. pneu NDM1 BAA-2473): 64 µg/mL (≈ 15.3 µM) | MIC for E. coli strains (E. coli strains): 16 to 32 µg/mL

CC[C@H](C)[C@H](NC(=O)CNC(=O)[C@H](CCC(=O)O)NC(=O)[C@H](CO)NC(=O)[C@@H](NC(=O)[C@H](CCCNC(=N)N)NC(=O)[C@H](CCCCN)NC(=O)[C@H](CCCCN)NC(=O)[C@H](C)NC(=O)[C@H](CO)NC(=O)[C@H](CC(N)=O)NC(=O)[C@H](CCC(=O)O)NC(=O)[C@H](CC(C)C)NC(=O)[C@H](CCCCN)NC(=O)[C@H](CCCCN)NC(=O)[C@H](C)NC(=O)[C@@H](NC(=O)[C@H](CCCCN)NC(=O)[C@H](CO)NC(=O)[C@H](CC(C)C)NC(=O)[C@H](Cc1c[nH]c2ccccc12)NC(=O)[C@H](CO)NC(=O)[C@H](CS)NC(=O)[C@@H](N)CCSC)[C@@H](C)O)[C@@H](C)CC)C(=O)N[C@@H](C)C(=O)N[C@H](C(=O)N[C@@H](C)C(=O)N[C@H](C(=O)N[C@@H](CCC(N)=O)C(=O)NCC(=O)NCC(=O)N1CCC[C@H]1C(=O)N[C@@H](CCCNC(=N)N)C(=O)N[C@@H](CS)C(N)=O)[C@@H](C)CC)[C@@H](C)CC [OMN11] (H-MCSWLSKTAKKLENSAKKRISEGIAIAIQGGPRC-NH2; N-terminus and C-terminus assumed)
MIC (E. coli Sens. 25922 [2]): 25 µM (≈ 91.9 µg/mL) | MIC (P. aeruginosa BAA-2110 [3]): 40 µM (≈ 147 µg/mL) | MBC (E. coli Sens. 25922 [4]): 25 µM (≈ 91.9 µg/mL) | MBC (P. aeruginosa BAA-2110 [5]): 40 µM (≈ 147 µg/mL)

CC[C@H](C)[C@@H]1NC(=O)[C@H](C)NC(=O)[C@H](C)NC(=O)[C@H](C)NC(=O)[C@H](CCC(N)=O)NC(=O)CNC(=O)[C@H](C(C)C)NC(=O)[C@H]([C@@H](C)O)NC(=O)[C@H](C)NC(=O)[C@H](C(C)C)NC(=O)[C@H](C)NC(=O)[C@@H]2CCCN2C(=O)[C@H](C)NC(=O)[C@H](C)NC(=O)[C@H](CO)NC(=O)[C@H]([C@@H](C)O)NC(=O)[C@H](C(C)C)NC(=O)[C@H](C)NC(=O)[C@H](CC(=O)O)NC(=O)[C@H](CCCNC(=N)N)NC(=O)[C@H](C(C)C)NC(=O)[C@H](CCCNC(=N)N)NC(=O)[C@H](CCC(N)=O)NC(=O)CNC(=O)[C@H](C)NC(=O)[C@H](CCCNC(=N)N)NC(=O)[C@H](CCC(=O)O)NC(=O)[C@H](CC(C)C)NC(=O)[C@H](CCC(=O)O)NC(=O)[C@H](CCCCN)NC(=O)[C@H](Cc2ccccc2)NC(=O)[C@@H]2CCCN2C(=O)[C@H](CC(N)=O)NC(=O)[C@H](Cc2c[nH]c3ccccc23)NC(=O)[C@@H](NC(=O)[C@@H](N)CCSC)CSSC[C@@H](C(=O)O)NC(=O)[C@H](CCCNC(=N)N)NC(=O)[C@H](C)NC1=O [OMN3] (H-MCWNPFKELERAGQRVRDAVTSAAPAVATVGQAAAIARC-OH; disulfide 2-39; N-terminus and C-terminus assumed)
MIC (P. aeruginosa BAA-2795): 256 µg/mL (≈ 62.2 µM) | MIC for E. coli strains (E. coli strains): above 256 μg/mL

CC[C@H](C)[C@@H]1NC(=O)[C@H](C)NC(=O)[C@H](CC(=O)O)NC(=O)[C@H](CCCNC(=N)N)NC(=O)[C@H](C(C)C)NC(=O)[C@H](CCCNC(=N)N)NC(=O)[C@H](CCC(N)=O)NC(=O)CNC(=O)[C@H](C)NC(=O)[C@H](CCCNC(=N)N)NC(=O)[C@H](CCC(=O)O)NC(=O)[C@H](CC(C)C)NC(=O)[C@H](CCC(=O)O)NC(=O)[C@H](CCCCN)NC(=O)[C@H](Cc2ccccc2)NC(=O)[C@@H]2CCCN2C(=O)[C@H](CC(N)=O)NC(=O)[C@H](Cc2c[nH]c3ccccc23)NC(=O)[C@@H](NC(=O)[C@@H](N)CCSC)CSSC[C@@H](C(=O)O)NC(=O)[C@H](CCCCN)NC(=O)[C@H](C)NC(=O)[C@H](CC(C)C)NC(=O)[C@H](C)NC(=O)[C@H]([C@@H](C)O)NC(=O)[C@H](C)NC(=O)[C@H](CCC(N)=O)NC(=O)[C@H](C)NC(=O)[C@H](C(C)C)NC(=O)[C@H]([C@@H](C)O)NC(=O)[C@H](C)NC(=O)[C@H](C(C)C)NC(=O)[C@H](C)NC(=O)[C@@H]2CCCN2C(=O)CNC(=O)[C@H](C)NC(=O)[C@H](CO)NC(=O)[C@H]([C@@H](C)CC)NC1=O [OMN5] (H-MCWNPFKELERAGQRVRDAIISAGPAVATVAQATALAKC-OH; disulfide 2-39; N-terminus and C-terminus assumed)
MIC (P. aeruginosa BAA-2795): 256 µg/mL (≈ 61.8 µM) | MIC for E. coli strains (E. coli strains): above 256 μg/mL

KWKLFKKIEKVGQNIRDGIIKAGPAVAVVGQATQIAK-NH2 (C-terminus assumed) [CecA, reference compound]
Degradation by ProtK (gel band) (Proteinase-K; 5 ng ProtK): partially degrade | Degradation by ProtK (gel band) (Proteinase-K; 20 ng ProtK): completely degrade

Bovine Serum Albumin [BSA, reference compound]
Degradation by ProtK (gel band) (Proteinase-K; 5 ng ProtK): partially degrade | Degradation by ProtK (gel band) (Proteinase-K; 20 ng ProtK): completely degrade

CC[C@H](C)[C@H](NC(=O)CNC(=O)[C@H](CC(=O)O)NC(=O)[C@H](CCCNC(=N)N)NC(=O)[C@@H](NC(=O)[C@H](CC(N)=O)NC(=O)[C@H](CCC(N)=O)NC(=O)CNC(=O)[C@@H](NC(=O)[C@H](CCCCN)NC(=O)[C@H](CCC(=O)O)NC(=O)[C@@H](NC(=O)[C@H](CCCCN)NC(=O)[C@H](CCCCN)NC(=O)[C@H](Cc1ccccc1)NC(=O)[C@@H](NC(=O)[C@H](CCCCN)NC(=O)[C@H](Cc1c[nH]c2ccccc12)NC(=O)[C@H](CCCNC(=N)N)NC(=O)[C@H](CS)NC(=O)[C@@H](N)CCSC)[C@@H](C)CC)[C@@H](C)CC)C(C)C)[C@@H](C)CC)C(=O)N[C@H](C(=O)N[C@@H](CCCCN)C(=O)N[C@@H](C)C(=O)NCC(=O)N1CCC[C@H]1C(=O)N[C@@H](C)C(=O)N[C@H](C(=O)N[C@@H](C)C(=O)N[C@H](C(=O)N[C@H](C(=O)NCC(=O)N[C@@H](CCC(N)=O)C(=O)N[C@@H](C)C(=O)N[C@@H](C)C(=O)N[C@H](C(=O)N[C@H](C(=O)N[C@@H](CS)C(N)=O)[C@@H](C)CC)[C@@H](C)O)C(C)C)C(C)C)C(C)C)C(C)C [OMN7] (H-MCRWKIFKKIEKVGQNIRDGIVKAGPAVAVVGQAATIC-NH2; N-terminus and C-terminus assumed)
MIC (P. aeruginosa BAA-2110 [3]): 50 µM (≈ 205 µg/mL) | MBC (P. aeruginosa BAA-2110 [5]): 50 µM (≈ 205 µg/mL)
